Measured values: patent publication US20010051654A1, “Treatment of inflammatory and autoimmune diseases” (priority 1997, published 2001)

What was measured:
[1] = set-up: species or system Sprague-Dawley rats; details: rat, in vivo, iv
Method: A single dose intravenous pharmacokinetics study with N-(pyrazine)carbonyl-L-phenylalanine-L-leucine boronic acid (1) was conducted in Sprague-Dawley rats (140 to 280 g). Animals were assigned to 3 groups (6/sex in Groups 1 and 2; 9/sex in Group 3). Animals in groups 1, 2, and 3 received 0.03, 0.1 or 0.3 mg/kg of 1, respectively, in the same dose volume.
Blood samples (approximately 1.0 mL) were collected from the jugular vein of animals pre-dose and at approximately 10 and 30 min and 1, 3 and 24 h post-dose on Day 1.

20 S proteasome [2] = assay: Ex vivo 20 S proteasome activity in peripheral white blood cells of mice
Method: (§1) This preparation procedure applies to blood samples collected from mammals, particularly rats, mice, dogs, pigs, rabbits, non-human primates, or human subjects. Peripheral white blood cells are separated from blood samples upon collection for storage at about −70° C. until tested. To avoid interference with the assay due to the presence of endogenous proteasome inhibitors, it is important that red blood cells be rigorously excluded.
The blood sample is diluted 1:1 (v/v) with sterile saline, and the blood-saline mixture is layered over NYCOPREP™ separation medium (GIBCO BRL Products) in a 14×75 mm polystyrene test tube at a ratio of approximately 2:1 blood:NYCOPREP™. The sample is centrifuged at 500 x g for approximately 30 minutes at room temperature. The top layer is removed, leaving ˜2-3 mm of the cell band between the top and bottom layers. The remaining cell band is transferred by pipette to a clean centrifuge tube. The cell band is washed with 3 mL of cold phosphate-buffered saline and centrifuged at 400 x g for 5 minutes at 4° C. The supernatant is poured off and the pellet is resuspended in ˜1 mL of cold phosphate-buffered saline. The suspension is transferred to a 1.5 mL Eppendorf microfuge tube and microfuged at 6600 x g for approximately 10 minutes at 4° C. […]
The amount of 20 S proteasome activity in the test sample is calculated according to the following formula: [formula] […]

20 S proteasome [3] = assay: Ex vivo 20 S proteasome activity in peripheral white blood cells of rats
Method: as §1
The blood sample is diluted 1:1 (v/v) with sterile saline, and the blood-saline mixture is layered over NYCOPREP™ separation medium (GIBCO BRL Products) in a 14×75 mm polystyrene test tube at a ratio of approximately 2:1 blood:NYCOPREP™. The sample is centrifuged at 500 x g for approximately 30 minutes at room temperature. The top layer is removed, leaving ˜2-3 mm of the cell band between the top and bottom layers. The remaining cell band is transferred by pipette to a clean centrifuge tube. The cell band is washed with 3 mL of cold phosphate-buffered saline and centrifuged at 400 x g for 5 minutes at 4° C. The supernatant is poured off and the pellet is resuspended in ˜1 mL of cold phosphate-buffered saline. The suspension is transferred to a 1.5 mL Eppendorf microfuge tube and microfuged at 6600 x g for approximately 10 minutes at 4° C. The supernatant is aspirated off and the cell pellet is stored at −70° C.±10° C.
Measurement of this rate in the absence and in the presence of an inhibitor allows a determination of how enzyme is bound by inhibitor. This assay is used to measure 20 S proteasome activity in peripheral white blood cells in mammals, particularly rats, mice, dogs, pigs, rabbits, non-human primates, or human subjects.
The amount of 20 S proteasome activity in the test sample is calculated according to the following formula: [formula]
Dose formulations of 1 were prepared daily during the course of the study. Dilutions were prepared from a stock solution. The stock solution of 1 was made up in 98% saline (0.9%), 2% ethanol with 0.1% ascorbic acid. Dilutions of the stock were made in the same vehicle.
Drugs were administered in vehicle intravenously (IV) using a dose volume of 100 μL per mouse or 1.0 mL/kg in rats. Control groups were administered with the vehicle (98% saline [0.9%], 2% ethanol, 0.1% ascorbic acid). Animals were dosed with 1 as a single IV bolus given either once or on multiple occasions.
Following IV dosing with 1, blood was withdrawn at various time points and peripheral white blood cells were isolated.
Blood samples were collected at 1.0, 24 and 48 h following administration of 1.
In an additional repeat dose study, male Sprague-Dawley rats (250 to 450 g; n=6 per group) were treated with twice weekly intravenous doses of 1 (0.01 to 0.35 mg/kg/day in a dose volume of 1.0 mL/kg) for two weeks. The vehicle was 0. […] Blood samples were collected 1.0 h after the last dose for evaluation of 20 S proteasome activity.

20 S proteasome [4] = assay: Ex vivo 20 S proteasome activity in primate white blood cells; set-up: species or system Cynomolgus monkeys
Method: (§2) Male and female Cynomolgus monkeys (2.2 to 3.5 kg) were assigned to four groups (5/sex/group). Each group received 0 (vehicle control), 0.045, 0.067 or 0.100 mg/kg/dose of 1 as a single intravenous injection in a dose volume of 0.3 mL/kg twice weekly for 4 weeks (days 1, 5, 8, 12, 15, 19, 22 and 26). […] Three males from the control, low- and mid-dose groups, two high-dose males, and three females/group were sacrificed at the end of treatment on Day 27. Two animals/sex/group were designated as recovery animals and received treatment for 4 weeks followed by 2 weeks of recovery; they were sacrificed on Day 41.
(§3) Blood was collected for 20 S proteasome activity determination prior to treatment, at 1.0 h after dosing on Days 1, 8, 15 and 22, and at 1.0 h prior to dosing on Days 5, 12, 19 and 26; and on Days 31, 34, 38, and 41 (recovery sacrifice animals).

20 S proteasome [5] = assay: Chymotryptic and tryptic assays in rat white blood cell lysates; assay type: biochemical; details: fit, FIG. 19
Excerpt: Data was fitted as in Example 10, to give kc/kt=17.6±and βt=1.1±0.2 (FIG. 19).

20 S proteasome [6] = assay: Chymotryptic to tryptic activity ratio assay, human samples; assay type: biochemical
Excerpt: βt=activation factor determined upon titration of the proteasome inhibitor. For the proteasome inhibitor 1, βt=1.28 in human samples.

[7] = Twice weekly intravenous dosing for 4 weeks in Cynomolgus monkeys, clinical condition; assay type: in vivo; details: one high-dose male (0.100 mg/kg/dose), Day 26 after receiving 8 doses
Method: as §2, §3

[8] = system: 20 S proteasome from rabbit reticulocytes; assay: Chymotryptic and tryptic activities of purified 20 S proteasome from rabbit reticulocytes
Method: Chymotryptic and tryptic assays were performed as described in Examples 3 and 5 at increasing concentrations of the proteasome inhibitor 1.

[9] = alternate daily IV for 14 days, 24 h after last dose
[10] = daily IV for 7 days, 24 h after last dose
[11] = once weekly IV for 8 weeks, 24 h after last dose

**Q.** Which results are given for `CC(C)C[C@H](NC(=O)[C@H](Cc1ccccc1)NC(=O)c1cnccn1)B(O)O` [Compound 1, N-(pyrazine)carbonyl-L-phenylalanine-L-leucine boronic acid]?
**A.** clearance from the blood [1]: rapidly cleared; time to peak concentration (Tmax) ([1]; 0.3 mg/kg): ~10 min; 20 S proteasome activity in white blood cells (20 S proteasome [2]; 1.0 h after single IV 0.1 to 3.0 mg/kg, all dose groups): significant (p<0.05) dose-related decrease; 20 S proteasome activity in white blood cells (20 S proteasome [2]; 24 h after single IV 0.1 to 3.0 mg/kg): starts to recover; 20 S proteasome activity in white blood cells (20 S proteasome [3]; 1.0 h after single IV 0.03 to 0.3 mg/kg, female Wistar rats): significant (p<0.05) dose-related decrease; 20 S proteasome activity in white blood cells (20 S proteasome [3]; 24 h after single IV 0.03 to 0.3 mg/kg, female Wistar rats): smaller, but remained significant (p <0.05) in the higher dose groups; 20 S proteasome activity in white blood cells (20 S proteasome [3]; 48 h after single IV 0.03 to 0.3 mg/kg, female Wistar rats): no longer significantly decreased; 20 S proteasome activity in white blood cells (20 S proteasome [3]; [9]): significant dose-related decrease; dose groups with significant (p<0.05) decrease in 20 S proteasome activity (20 S proteasome [3]; [9]): > 0.2 mg/kg; 20 S proteasome activity in white blood cells (20 S proteasome [3]; [10]): dose-related decrease; doses with significant inhibition of 20 S proteasome activity (20 S proteasome [3]; [10]): > 0.05 mg/kg; 20 S proteasome activity in white blood cells (20 S proteasome [3]; [11]): significant (p<0.05) dose-related decrease; dose groups with significant (p<0.05) decrease in 20 S proteasome activity (20 S proteasome [3]; [11]): > 0.1 mg/kg; 20 S proteasome activity in white blood cells (20 S proteasome [3]; twice weekly IV for 2 weeks (4 doses, 0.01 to 0.35 mg/kg/day), 1.0 h after last dose, male Sprague-Dawley rats): dose-related decrease; dose groups with significant (p<0.05) decrease in 20 S proteasome activity (20 S proteasome [3]; twice weekly IV for 2 weeks, 1.0 h after last dose, male Sprague-Dawley rats): > 0.03 mg/kg; white blood cell 20 S proteasome activity (20 S proteasome [4]; 1.0 h after dosing, 0.045, 0.067 or 0.100 mg/kg/dose IV twice weekly for 4 weeks): significant and dose-related decrease; white blood cell 20 S proteasome activity (20 S proteasome [4]; 72 hours after dosing, prior to the subsequent dose): recovered; white blood cell 20 S proteasome activity of the moribund animal (20 S proteasome [4]; high-dose male at sacrifice on Day 26 after 8 doses): low residual 20 S proteasome activity; βt (activation factor of tryptic activity) (20 S proteasome [5]): 1.1±0.2; βt (activation factor determined upon titration of the proteasome inhibitor) (20 S proteasome [6]): 1.28; clinical condition [7]: sacrificed in moribund condition; βc (factor for chymotryptic activity of the E•I complex; 0 = total inhibition) [8]: 0; chymotryptic activity (FIG. 17) ([8]; increasing concentrations of 1): fully inhibits; tryptic activity (FIG. 17) ([8]; increasing concentrations of 1): activation; βt (activation factor of tryptic activity) ([8]; purified 20 S proteasome from rabbit reticulocytes, fit, FIG. 18): 1.38±0.05
